Laboratory results published in patent US20110124661A1, “OXAZOLOBENZIMIDAZOLE DERIVATIVES” (MERCK SHARP & DOHME CORP., priority 2008, published 2011).

Molecular target: T1, recombinant human mGluR2 (Homo sapiens, UniProt Q14416)
T1 construct: expressed in transfected cells
Test: FLIPR Ca2+ mobilization assay, potentiation of glutamate response
Type: cell-based
Settings: potentiation after EC20 glutamate (900 nM); CHO dhfr- cells expressing human mGluR2 and Gα16; read-out: Representative FLIPR EC50 Values
Procedure: Inhibition constants are determined as follows. The compounds of the present invention may be tested in a […] (FLIPR) based assay. This assay is a common functional assay to monitor Ca^2+ mobilization in whole cells expressing recombinant receptor coupled with a promiscuous G-protein. CHO dhfr-cells stably expressing recombinant human mGluR2 and Gα16 loaded with Fluo-4 AM (Invitrogen, Carlsbad Calif.) are treated with dose responses of compounds and the Ca^2+ response is monitored on a FLIPR384 (Molecular Devices, Sunnydale Calif.) for agonist activity. The potentiation response is monitored after a subsequent addition of an EC20 concentration of glutamate (900 nM). The maximum calcium response at each concentration of compound for agonist or potentiation are plotted as dose responses and the curves are fitted with a four parameters logistic equation giving EC50 and Hill coefficient using the iterative non linear curve fitting software program.

T1 sequence (Q14416 19-872): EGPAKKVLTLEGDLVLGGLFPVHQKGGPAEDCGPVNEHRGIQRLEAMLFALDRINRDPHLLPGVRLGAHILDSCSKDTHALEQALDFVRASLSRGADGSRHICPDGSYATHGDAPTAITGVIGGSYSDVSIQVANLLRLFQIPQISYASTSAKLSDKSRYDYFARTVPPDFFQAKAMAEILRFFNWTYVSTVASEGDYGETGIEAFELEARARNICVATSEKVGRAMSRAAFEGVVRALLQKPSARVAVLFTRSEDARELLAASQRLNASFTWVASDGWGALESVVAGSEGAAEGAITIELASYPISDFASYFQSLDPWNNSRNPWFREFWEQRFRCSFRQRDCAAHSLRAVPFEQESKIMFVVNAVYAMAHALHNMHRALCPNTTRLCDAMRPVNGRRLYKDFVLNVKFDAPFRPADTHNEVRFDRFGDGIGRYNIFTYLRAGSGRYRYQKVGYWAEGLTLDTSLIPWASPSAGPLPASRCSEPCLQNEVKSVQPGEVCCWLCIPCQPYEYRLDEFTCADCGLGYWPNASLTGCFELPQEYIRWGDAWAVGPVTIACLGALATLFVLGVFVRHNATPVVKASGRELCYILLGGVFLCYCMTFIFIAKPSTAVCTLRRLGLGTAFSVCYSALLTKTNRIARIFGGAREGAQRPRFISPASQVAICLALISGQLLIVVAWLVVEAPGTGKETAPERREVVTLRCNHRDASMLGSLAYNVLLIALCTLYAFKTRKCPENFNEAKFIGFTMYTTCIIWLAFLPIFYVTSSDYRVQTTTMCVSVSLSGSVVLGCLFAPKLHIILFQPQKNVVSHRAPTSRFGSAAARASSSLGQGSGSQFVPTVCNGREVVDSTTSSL

Row | EC50 [nM] | Compound
1 | 261 | CC(C)(C)c1ccc(OCC2Cn3c(nc4cccnc43)O2)cc1 (racemic) [Example 2-16, (RS)-2-[(4-tert-butylphenoxy)methyl]-2,3-dihydro[1,3]oxazolo[2′,3′:2,3]imidazo[4,5-b]pyridine]
2 | 28 | CC(C)(C)c1ccc(OC[C@@H]2Cn3c(nc4cc(C#N)ccc43)O2)cn1 [Example 1-6, (2S)-2-{[(6-tert-butylpyridin-3-yl)oxy]methyl}-2,3-dihydro[1,3]oxazolo[3,2-a]benzimidazole-7-carbonitrile]
3 | 206 | CC(C)(C)c1cc(OC[C@@H]2Cn3c(nc4cc(C#N)ccc43)O2)ccn1 [Example 1-12, (2S)-2-{[(2-tert-butylpyridin-4-yl)oxy]methyl}-2,3-dihydro[1,3]oxazolo[3,2-a]benzimidazole-7-carbonitrile]
4 | 58 | CC(C)(C)c1ccc(OC[C@@H]2Cn3c(nc4cc(F)c(F)cc43)O2)cn1 [Example 1-17, (2S)-2-{[(6-tert-bulylpyridin-3-yl)oxy]methyl}-6,7-difluoro-2,3-dihydro[1,3]oxazolo[3,2-a]benzimidazole]
5 | 507 | FC(F)(F)c1ccc(OC[C@@H]2Cn3c(nc4ccccc43)O2)cn1 [Example 1-21, (2S)-2-({[6-(trifluoromethyl)yridine-3-yl]oxy}methyl)-2,3-dihydro[1,3]oxazolo[3,2-a]benzimidazole]

Row | Compound | EC50 [nM]
6 | (2S)-2-{[4-(2,2,2-trifluoro-1,1-dimethylethyl)phenoxy]methyl}-2,3-dihydro[1,3]oxazolo[3′,2′:1,2]imidazo[4,5-c]pyridine [Example 2-8] | 21
